According to patent US4224325A, “3-(1-Pyrazolyl)-pyridazine derivatives and hypotensive compositions thereof” (Richter Gedeon Vegyeszeti Gyar Rt., priority 1977, dated 1980):
Read-outs that look alike come from different tables or passages of the source.

Legend:
[1] = target: T1, prostaglandin dehydrogenase (PGDH) (Sus scrofa, UniProt A0ACM8QJV0); assay: Prostaglandin dehydrogenase (PGDH) inhibiting action, method of Marrazzi and Matschinsky, PGDH preparation from pig lung; type: biochemical
T1 construct: on a PGDH preparation from pig lung; from tissue; host or cells: pig lung
T1 sequence (A0ACM8QJV0 1-266): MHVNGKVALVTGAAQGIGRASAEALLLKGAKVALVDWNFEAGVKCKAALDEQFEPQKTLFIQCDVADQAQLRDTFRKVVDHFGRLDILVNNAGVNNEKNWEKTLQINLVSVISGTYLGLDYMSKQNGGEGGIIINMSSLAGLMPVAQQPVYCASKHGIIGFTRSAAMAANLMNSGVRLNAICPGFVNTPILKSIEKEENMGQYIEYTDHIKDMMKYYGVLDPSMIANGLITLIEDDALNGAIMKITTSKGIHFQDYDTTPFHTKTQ
Excerpt: (§1) The I50%, i.e. the index of inhibition, is defined as the concentration of the substance inhibiting to 50% the function of the corresponding enzyme.

[2] = target: prostaglandin-A isomerase (PGAI); assay: Prostaglandin-A isomerase (PGAI) inhibiting action, method of Jones et al., PGAI preparation from blood plasma of pigs; type: biochemical; conditions: concentration inhibiting enzyme function to 50%; PGAI from pig blood plasma; read-out: I50% inhibiting level in final concentration, PGAI
Excerpt: as §1

cats = assay: Hypotensive action in narcotized cats (decrease in blood pressure); type: in vivo; conditions: cats narcotized i.p. by 30 mg/kg Pentobarbital
in vivo = conditions: mouse, po
[3] = tested on: spontaneously hypertensive (Wistar-Okamoto) rats; assay: Hypotensive action in spontaneously hypertensive rats, systolic blood pressure in caudal artery by indirect method after oral treatment; type: in vivo; conditions: dose equal to Hydralazine
Procedure: The hypotensive action of substance 44 was studied also in spontaneously hypertensive (Wistar-Okamoto(rats)Arzneim.- forsch. 6, 222, 1956): the systolic blood pressure was measured in the caudal artery by an indirect method, after oral treatment.

[4] = Tachycardia (inability to cause, compared with Hydralazine); type: in vivo; conditions: against Hydralazine
mice = conditions: against Hydralazine
[5] = tested on: prostaglandin dehydrogenase and prostaglandin-A isomerase; assay: Inhibition of enzymes regulating prostaglandin catabolism (prostaglandin dehydrogenase and prostaglandin-A isomerase), in words; type: biochemical
Procedure: The prostaglandin-A isomerase (PGAI) inhibiting action of the compounds according to the invention was measured by the method of Jones et al. (Biochim. Biophys. Acta 280, 558, 1972) on a PGAI preparation from the blood plasma of pigs, whereas the prostaglandin dehydrogenase (PGDH) inhibiting action was determined by the method of Marrazzi and Matschinsky (Prostaglandins 1, 373, 1972); on a PGDH preparation from pig lung.

[6] = concentration inhibiting enzyme function to 50%, PGDH from pig lung, read-out: I50% inhibiting level in final concentration, PGDH

Structure (SMILES) | IC50 [2] [µM] | Decrease in blood pressure by 1 mg/kg (cats) [Hgmm] | LD50 (in vivo) [mg/kg] | further results
C[C@]12CC[C@@H]3c4ccc(O)cc4CC[C@H]3[C@@H]1CCC2=O [Estrone, reference compound] | – | – | – | IC50 [1]: 10 µM
Cc1cc(C)n(-c2ccc(NCc3ccccc3)nn2)n1 [Example 17, 3-Benzylamino-6-(3,5-dimethyl-1-pyrazolyl)-pyridazine] | – | – | – | IC50 [1, 6]: 200 µM
Cc1cc(C)n(-c2ccc(N(C)C)nn2)n1 [Example 19, 3-Dimethylamino-6-(3,5-dimethyl-1-pyrizolyl)-pyridazine] | 130 | – | – | –
c1ccc(CNc2ccc(-n3nc(-c4ccccc4)cc3-c3ccccc3)nn2)cc1 [Example 21, 3-Benzylamino-6-(3,5-diphenyl-1-pyrazolyl)-pyridazine] | 20 | – | – | –
Cc1cc(C)n(-c2ccc(NN)nn2)n1 [Example 25, 3-hydrazino-6-(3,5-dimethyl-1-pyrazolyl)-pyridazine] | 25 | -30 | 200 | –
NNc1ccc(-n2nc(C3CC3)cc2C2CC2)nn1 [Example 26, 3-Hydrazino-6-(3,5-dicyclopropyl-1-pyrazolyl)-pyridazine] | – | -40 | 100 | –
CCc1cc(CC)n(-c2ccc(NN)nn2)n1 [Example 29, 3-Hydrazino-6-(3,5-diethyl-1-pyrazolyl)-pridazine] | – | -40 | ~150 | –
Cc1nn(-c2ccc(NN)nn2)c(C)c1C [Example 31, 3-Hydrazino-6-(3,4,5-trimethyl-1-pyrazolyl)-pridazine] | 60 | -15 | 100 | –
Cc1nn(-c2ccc(NN)nn2)c(C)c1Cl [Example 34, 3-Hydrazino-6-(3,5-dimethyl-4-chloro-1-pyrazolyl)-pyridazine] | – | -20 | > 200 | IC50 [1, 6]: 110 µM
Cc1nn(-c2ccc(NN)nn2)c(C)c1Br [Example 35, 3-Hydrazini-6-(3,5-dimethyl-4-bromo-1-pyrazolyl)-pyridazine] | 80 | – | – | –
NNc1ccc(-n2nccc2N)nn1 [Example 40, 3-Hydrazino-6-(5-amino-1-pyrazolyl)-pyridazine] | – | -30 | 200 | –
Cc1nn(-c2ccc(NN)nn2)c(C)c1N [Example 44, 3-hydrazino-6-(3,5-dimethyl-4-amino-1-pyrazolyl)-pyridazine] | 70 | -40 | > 200 | Duration of effect compared with Hydralazine at equal dose [3]: same duration of effect; Effectivity (systolic blood pressure) compared with Hydralazine at equal dose [3]: same effectivity; Tachycardia [4]: inability to cause tachycardia; Toxicity compared with Hydralazine (mice): extraordinarily favorable toxicity; Prostaglandin catabolism inhibiting effect [5]: prostaglandin catabolism inhibiting effect
NNc1ccc(-n2cc(N)cn2)nn1 [Example 45, 3-Hydrazino-6-(4-amino-1-pyrazolyl)-pyridazine] | – | -30 | 200 | –
CCc1nn(-c2ccc(NN)nn2)c(CC)c1N [Example 46, 3-Hydrazino-6-(3,5-diethyl-4-amino-1-pyrazolyl)-pyridazine] | – | -50 | 200 | –
Cc1nn(-c2ccc(NNC(=O)OC(C)(C)C)nn2)c(C)c1N [Example 56, 3-(2-tert-butoxycarbonyl-1-hydrazino)-6-(3,5-dimethyl-4-amino-1-pyrazolyl)-pyridazine] | – | -35 | 200 | –
Cl.NNc1nncc2ccccc12 [Hydralazine, 1-hydrazinophthalazine hydrochloride, reference compound] | 90 | -40 | 200 | –
